# Test results taken from patent publication US10650228B2, “Devices and methods for analyzing animal behavior” (Children's Medical Center Corporation, priority 2015, dated 2020).
# Assays:
# [1] = system: mice; experiment: FTIR-generated paw luminance after intraplantar injection of capsaicin to the left hind paw; format: in vivo; settings: 180 minutes after intraplantar injection (5 μl, 0.1%) to the left hind paw; FIG. 14B
# Description: FIG. 14C illustrates that the luminance values of left and right hind paws are no different in naïve mice 0-30 minutes after being placed in chamber.
# [2] = system: mouse; experiment: FTIR imaging of weight bearing after experimental induction of inflammatory pain in the left hind paw; format: in vivo; settings: mouse with induced inflammation in left hind paw, analgesic given before FTIR imaging; FIG. 8 at right
# From the text: FIG. 8 illustrates examples of FTIR recordings that detect analgesic efficacy, with great sensitivity. […] For example, the FTIR images are brighter in areas where there is greater relative pressure exerted by the hind paw than in areas where there is less relative pressure exerted.
Compound,"FTIR paw luminance (weight bearing), uninjured right vs injected left hind paw [1]","weight shift to the uninjured leg (FTIR imaging, analgesic efficacy) [2]"
COc1cc(CNC(=O)CCCC/C=C/C(C)C)ccc1O [capsaicin],significantly increased luminance (weight bearing) in the uninjured (right) paw compared to the capsaicin-injected left paw,
O=C(O)Cc1ccccc1Nc1c(Cl)cccc1Cl [diclofenac],,does not shift its weight to the uninjured leg
